Reference: patent publication US8119801B2, “HIV inhibiting 2-(4-cyanophenyl)-6-hydroxylaminopyrimidines” (priority 2005, dated 2012)

Legend:
[1] = test system: Strain IIIB, wild type HIV-LAI strain; assay: Antiviral spectrum cellular assay, strain IIIB; format: cell-based; settings: Human immunodeficiency virus 1, IIIB, read-out: pEC50 against strain IIIB (converted)
Method: (§1) Because of the increasing emergence of drug resistant HIV strains, the present compounds were tested for their potency against clinically isolated HIV strains harboring several mutations. These mutations are associated with resistance to reverse transcriptase inhibitors and result in viruses that show various degrees of phenotypic cross-resistance to the currently commercially available drugs such as for instance AZT and delavirdine.
(§2) The antiviral activity of the compound of the present invention is evaluated in the presence of wild type HIV and HIV mutants bearing mutations at the reverse transcriptase gene. The activity of the compounds is evaluated using a cellular assay and the residual activity is expressed in pEC50 values. The columns IIIB and A-G in the table list the pEC50 values against various strains IIIB, A-G.
Strain IIIB is wild type HIV-LAI strain;

[2] = test system: Strain G, mutations L100I, K103N, E138G, V179I, Y181C, L214F, V276V/I and A327A/V in HIV reverse transcriptase; assay: Antiviral spectrum cellular assay, strain G; format: cell-based; settings: for EC50: Human immunodeficiency virus 1, read-out: pEC50 against strain G (converted)
Method: as §1, §2

[3] = test system: Strain A, mutation Y181C in HIV reverse transcriptase; assay: Antiviral spectrum cellular assay, strain A; format: cell-based; settings: Human immunodeficiency virus 1, read-out: pEC50 against strain A (converted)
Method: as §1, §2
Strain A contains mutation Y181C in HIV reverse transcriptase, […]

[4] = test system: Strain C, mutation L100I in HIV reverse transcriptase; assay: Antiviral spectrum cellular assay, strain C; format: cell-based; settings: Human immunodeficiency virus 1, read-out: pEC50 against strain C (converted)
Method: as §1, §2
Strain C contains mutation L100I in HIV reverse transcriptase, […]

[5] = test system: Strain B, mutation K103N in HIV reverse transcriptase; assay: Antiviral spectrum cellular assay, strain B; format: cell-based; settings: Human immunodeficiency virus 1, read-out: pEC50 against strain B (converted)
Method: as §1, §2
Strain B contains mutation K103N in HIV reverse transcriptase, […]

[6] = test system: Strain E, mutations L100I and K103N in HIV reverse transcriptase; assay: Antiviral spectrum cellular assay, strain E; format: cell-based
Method: as §1, §2
Strain E contains mutations L100I and K103N in HIV reverse transcriptase, […]

[7] = test system: Strain D, mutation Y188L and S162K in HIV reverse transcriptase; assay: Antiviral spectrum cellular assay, strain D; format: cell-based; settings: Human immunodeficiency virus 1, read-out: pEC50 against strain D (converted)
Method: as §1, §2
Strain D contains mutation Y188L and S162K in HIV reverse transcriptase, […]

[8] = test system: Strain F, mutations K101E and K103N in HIV reverse transcriptase; assay: Antiviral spectrum cellular assay, strain F; format: cell-based
Method: as §1, §2
Strain F contains mutations K101E and K103N in HIV reverse transcriptase.

[9] = compared to reference compound A

Row | SMILES | EC50 [1] | EC50 [2] | EC50 [3] | EC50 [4] | EC50 [5] | melting point | activity against multiple mutated strain G compared to reference compound A [2, 9] | EC50 ([6]; Human immunodeficiency virus 1, read-out: pEC50 against strain E (converted)) | activity against double mutant strain E compared to reference compound A [6, 9] | EC50 [7] | EC50 ([8]; Human immunodeficiency virus 1, read-out: pEC50 against strain F (converted)) | activity against double mutant strain F compared to reference compound A [8, 9]
1 | Cc1cc(C#N)cc(C)c1Oc1nc(Nc2ccc(C#N)cc2)nc(N)c1Br [Compound A, reference compound] | 2.82 nM | 5750 nM | 10 nM |  |  |  |  |  |  |  |  | 
2 | Cc1cc(C#N)cc(C)c1Oc1nc(Nc2ccc(C#N)cc2)nc(NO)c1Br [Compound 1, 4-[[6-hydroxylamino-5-bromo-2-[(4-cyanophenyl)amino]-4-pyrimidinyl]oxy]-3,5-dimethylbenzonitrile] | 3.98 nM | 479 nM | 12 nM | 1.2 nM | 2.34 nM | 211 °C (dec.) | improved activity | 1.86 nM | improved activity | 3.02 nM | 3.63 nM | improved activity
